Reference: article PMC12406203 (Journal of Medicinal Chemistry, 2025)
Several values for one entry are separate records, joined by “and”; a condition that tells them apart may be missing. Identical values can stand only once.

Legend:
CDK9 = biological target: T1, CDK9 (Homo sapiens, UniProt P50750); experiment: KINOMEscan; type: binding
T1 construct: purchased Eurofins DiscoverX, LLC; host or cells: E. coli (T7 phage) or HEK-293
Description: (§1) The kinase inhibition profile of compounds 94 and 95 was assessed against 103 protein kinases by Eurofins DiscoverX, LLC., using the KINOMEscan assay. Kinase-tagged T7 phage strains were grown in parallel in 24-well blocks in an E. coli host derived from the BL21 strain. E. coli were grown to log-phase and infected with T7 phage from a frozen stock (multiplicity of infection = 0.4) and incubated with shaking at 32 °C until lysis (90–150 min). The lysates were centrifuged (6000g) and filtered (0.2 μm) to remove cell debris. The remaining kinases were produced in HEK-293 cells and subsequently tagged with DNA for qPCR detection. […] The liganded beads were blocked with excess biotin and washed with blocking buffer (SeaBlock (Pierce), 1% BSA, 0.05% Tween 20, 1 mM DTT) to remove unbound ligand and to reduce nonspecific phage binding. […] Test compounds were prepared as 100× stocks in 100% DMSO and directly diluted into the assay. All reactions were performed in polypropylene 384-well plates in a final volume of 0.02 mL. […] The kinase concentration in the eluates was measured by qPCR.
(§2) The compound(s) were screened at the concentration(s) requested, and results for primary screen binding interactions are reported as RA (%), where lower numbers indicate stronger hits in the matrix. RA=(testcompoundsignal−PCsignal/NCsignal−PCsignal)×100

FAK = biological target: T2, FAK (Homo sapiens, UniProt Q05397); experiment: KINOMEscan; type: binding
T2 construct: purchased Eurofins DiscoverX, LLC; host or cells: E. coli (T7 phage) or HEK-293
T2 sequence (Q05397 whole entry): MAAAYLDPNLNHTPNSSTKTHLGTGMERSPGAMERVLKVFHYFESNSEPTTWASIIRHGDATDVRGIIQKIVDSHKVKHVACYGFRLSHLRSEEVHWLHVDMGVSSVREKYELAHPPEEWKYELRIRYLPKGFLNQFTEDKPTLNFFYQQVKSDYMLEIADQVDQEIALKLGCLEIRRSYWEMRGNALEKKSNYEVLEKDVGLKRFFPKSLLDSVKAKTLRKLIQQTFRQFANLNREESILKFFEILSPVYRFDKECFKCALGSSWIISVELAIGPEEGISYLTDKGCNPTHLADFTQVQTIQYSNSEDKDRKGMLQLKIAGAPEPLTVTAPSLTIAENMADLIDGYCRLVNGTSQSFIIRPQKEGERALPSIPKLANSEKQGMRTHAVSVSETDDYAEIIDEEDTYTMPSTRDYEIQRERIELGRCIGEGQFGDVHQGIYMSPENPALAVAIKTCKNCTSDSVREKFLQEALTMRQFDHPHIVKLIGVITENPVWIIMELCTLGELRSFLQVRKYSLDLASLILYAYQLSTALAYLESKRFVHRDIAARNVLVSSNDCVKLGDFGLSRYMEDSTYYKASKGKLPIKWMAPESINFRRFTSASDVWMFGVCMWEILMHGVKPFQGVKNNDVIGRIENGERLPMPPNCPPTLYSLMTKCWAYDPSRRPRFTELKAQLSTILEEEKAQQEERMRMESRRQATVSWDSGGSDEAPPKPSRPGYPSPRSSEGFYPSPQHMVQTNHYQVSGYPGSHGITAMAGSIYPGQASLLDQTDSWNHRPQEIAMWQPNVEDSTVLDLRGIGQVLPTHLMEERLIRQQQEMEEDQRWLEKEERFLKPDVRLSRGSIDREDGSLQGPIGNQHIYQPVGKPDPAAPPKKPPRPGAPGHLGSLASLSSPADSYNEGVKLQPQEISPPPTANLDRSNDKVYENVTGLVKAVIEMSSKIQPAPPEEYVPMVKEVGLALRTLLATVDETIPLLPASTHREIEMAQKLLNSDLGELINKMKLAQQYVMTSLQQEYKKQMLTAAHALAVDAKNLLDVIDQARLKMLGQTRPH
Description: as §1, §2

KIT(D816V) = biological target: T3, KIT(D816V) (Homo sapiens, UniProt P10721, D816V); experiment: KINOMEscan; type: binding
T3 construct: purchased Eurofins DiscoverX, LLC; host or cells: E. coli (BL21-derived, T7 phage) or HEK-293
Description: as §1, §2

MAPKAPK2 = biological target: T4, MAPKAPK2 (Homo sapiens, UniProt P49137); experiment: KINOMEscan; type: binding
T4 construct: purchased Eurofins DiscoverX, LLC; host or cells: E. coli (BL21-derived, T7 phage) or HEK-293
Description: as §1, §2

MKNK1 = biological target: T5, MKNK1 (Homo sapiens, UniProt Q9BUB5); experiment: KINOMEscan; type: binding
T5 construct: purchased Eurofins DiscoverX, LLC; host or cells: E. coli (BL21-derived, T7 phage) or HEK-293
Description: as §1, §2

[1] = biological target: T6, ABL1(E255K)-phosphorylated (Homo sapiens, UniProt P00519, E255K); experiment: KINOMEscan; type: binding
T6 construct: purchased Eurofins DiscoverX, LLC; host or cells: E. coli BL21-derived (T7 phage) or HEK-293
Description: as §1, §2

IGF1R = biological target: T7, IGF1R (Homo sapiens, UniProt P08069); experiment: KINOMEscan; type: binding
T7 construct: purchased Eurofins DiscoverX, LLC; host or cells: E. coli (T7 phage) or HEK-293
T7 sequence (P08069 31-1367): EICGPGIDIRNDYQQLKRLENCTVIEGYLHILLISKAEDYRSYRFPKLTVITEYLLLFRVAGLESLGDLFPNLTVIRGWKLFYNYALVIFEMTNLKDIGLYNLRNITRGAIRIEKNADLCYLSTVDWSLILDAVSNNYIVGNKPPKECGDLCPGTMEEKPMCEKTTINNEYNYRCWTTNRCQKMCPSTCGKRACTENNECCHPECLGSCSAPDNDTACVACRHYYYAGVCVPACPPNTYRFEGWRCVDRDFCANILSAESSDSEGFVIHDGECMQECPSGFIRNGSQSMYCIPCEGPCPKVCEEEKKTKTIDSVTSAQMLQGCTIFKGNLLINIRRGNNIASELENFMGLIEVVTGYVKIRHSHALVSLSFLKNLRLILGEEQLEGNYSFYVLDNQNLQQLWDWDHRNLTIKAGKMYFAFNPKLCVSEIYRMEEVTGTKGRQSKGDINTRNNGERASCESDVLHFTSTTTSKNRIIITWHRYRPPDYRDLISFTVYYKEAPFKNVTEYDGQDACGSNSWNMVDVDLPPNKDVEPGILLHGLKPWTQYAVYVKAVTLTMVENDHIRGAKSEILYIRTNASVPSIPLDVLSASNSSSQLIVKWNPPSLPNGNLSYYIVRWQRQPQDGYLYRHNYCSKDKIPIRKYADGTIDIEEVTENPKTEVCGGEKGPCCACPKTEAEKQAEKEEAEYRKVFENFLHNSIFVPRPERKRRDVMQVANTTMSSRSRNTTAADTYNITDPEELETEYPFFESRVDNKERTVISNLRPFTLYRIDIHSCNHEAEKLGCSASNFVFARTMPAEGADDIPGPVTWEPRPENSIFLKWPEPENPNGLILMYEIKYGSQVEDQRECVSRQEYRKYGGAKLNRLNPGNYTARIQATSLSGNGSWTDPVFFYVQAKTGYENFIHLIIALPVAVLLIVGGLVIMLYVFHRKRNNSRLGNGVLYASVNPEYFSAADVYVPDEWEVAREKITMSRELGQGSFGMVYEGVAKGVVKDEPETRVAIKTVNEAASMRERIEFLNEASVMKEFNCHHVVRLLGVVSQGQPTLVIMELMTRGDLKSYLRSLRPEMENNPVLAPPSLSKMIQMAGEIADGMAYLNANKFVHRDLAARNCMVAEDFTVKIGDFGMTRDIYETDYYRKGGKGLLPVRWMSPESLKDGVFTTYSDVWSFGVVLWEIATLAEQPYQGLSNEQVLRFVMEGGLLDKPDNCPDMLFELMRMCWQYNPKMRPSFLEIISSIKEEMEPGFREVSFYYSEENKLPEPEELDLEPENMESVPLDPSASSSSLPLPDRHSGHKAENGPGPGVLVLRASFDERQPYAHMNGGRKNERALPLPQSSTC
Description: as §1, §2

p38α = biological target: T8, p38α (Homo sapiens, UniProt Q16539); experiment: KINOMEscan; type: binding
T8 construct: purchased Eurofins DiscoverX, LLC; host or cells: E. coli (BL21-derived, T7 phage) or HEK-293
Description: as §1, §2

SRPK3 = biological target: T9, SRPK3 (Homo sapiens, UniProt Q9UPE1); experiment: KINOMEscan; type: binding
T9 construct: purchased Eurofins DiscoverX, LLC; host or cells: E. coli BL21-derived host (T7 phage) or HEK-293
Description: as §1, §2

PAK1 [2] = biological target: T10, PAK1 (Homo sapiens, UniProt Q13153); experiment: KINOMEscan; type: binding
T10 construct: purchased Eurofins DiscoverX, LLC; host or cells: E. coli (BL21-derived, T7 phage) or HEK-293
Description: as §1, §2

MET = biological target: T11, MET (Homo sapiens, UniProt P08581); experiment: KINOMEscan; type: binding
T11 construct: purchased Eurofins DiscoverX, LLC; host or cells: E. coli (BL21-derived, T7 phage) or HEK-293
T11 sequence (P08581 25-1390): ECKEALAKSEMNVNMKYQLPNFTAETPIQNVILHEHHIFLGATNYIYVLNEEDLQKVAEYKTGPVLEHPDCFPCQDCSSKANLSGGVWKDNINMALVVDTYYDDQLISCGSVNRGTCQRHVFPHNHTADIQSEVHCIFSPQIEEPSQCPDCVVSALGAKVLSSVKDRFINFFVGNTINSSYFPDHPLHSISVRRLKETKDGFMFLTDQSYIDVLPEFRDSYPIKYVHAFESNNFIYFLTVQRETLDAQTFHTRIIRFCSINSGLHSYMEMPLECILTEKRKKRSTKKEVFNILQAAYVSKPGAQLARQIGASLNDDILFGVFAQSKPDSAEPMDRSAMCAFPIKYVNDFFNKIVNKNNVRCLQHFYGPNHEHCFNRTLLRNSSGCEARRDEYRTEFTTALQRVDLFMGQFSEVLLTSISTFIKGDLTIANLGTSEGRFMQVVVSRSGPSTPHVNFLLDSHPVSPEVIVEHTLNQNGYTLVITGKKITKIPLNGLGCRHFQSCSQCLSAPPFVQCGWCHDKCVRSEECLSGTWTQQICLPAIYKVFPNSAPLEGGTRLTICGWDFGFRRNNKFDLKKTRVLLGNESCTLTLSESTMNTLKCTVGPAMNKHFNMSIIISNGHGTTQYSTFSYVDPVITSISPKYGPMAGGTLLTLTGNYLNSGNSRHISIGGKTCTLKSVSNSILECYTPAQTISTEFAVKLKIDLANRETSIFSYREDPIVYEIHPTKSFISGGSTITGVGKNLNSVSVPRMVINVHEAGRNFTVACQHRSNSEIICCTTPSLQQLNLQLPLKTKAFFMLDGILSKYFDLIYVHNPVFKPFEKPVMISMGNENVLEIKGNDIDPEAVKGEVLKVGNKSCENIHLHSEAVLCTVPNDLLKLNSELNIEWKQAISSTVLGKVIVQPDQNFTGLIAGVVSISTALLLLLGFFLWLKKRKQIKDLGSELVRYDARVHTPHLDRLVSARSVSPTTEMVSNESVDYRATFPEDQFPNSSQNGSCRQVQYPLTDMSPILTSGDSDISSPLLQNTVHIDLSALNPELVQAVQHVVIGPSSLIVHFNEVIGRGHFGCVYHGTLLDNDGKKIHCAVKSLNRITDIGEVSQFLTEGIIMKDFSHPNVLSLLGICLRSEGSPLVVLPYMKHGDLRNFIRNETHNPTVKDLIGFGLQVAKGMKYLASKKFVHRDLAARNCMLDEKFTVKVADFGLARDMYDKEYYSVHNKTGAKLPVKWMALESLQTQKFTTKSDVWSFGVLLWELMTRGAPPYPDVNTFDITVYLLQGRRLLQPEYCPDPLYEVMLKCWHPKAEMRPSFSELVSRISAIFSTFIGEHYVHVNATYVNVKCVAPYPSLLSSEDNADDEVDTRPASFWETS
Description: as §1, §2

BMPR2 = biological target: T12, BMPR2 (Homo sapiens, UniProt Q13873); experiment: KINOMEscan; type: binding
T12 construct: purchased Eurofins DiscoverX, LLC; host or cells: E. coli BL21-derived (T7 phage) or HEK-293
T12 sequence (Q13873 27-1038): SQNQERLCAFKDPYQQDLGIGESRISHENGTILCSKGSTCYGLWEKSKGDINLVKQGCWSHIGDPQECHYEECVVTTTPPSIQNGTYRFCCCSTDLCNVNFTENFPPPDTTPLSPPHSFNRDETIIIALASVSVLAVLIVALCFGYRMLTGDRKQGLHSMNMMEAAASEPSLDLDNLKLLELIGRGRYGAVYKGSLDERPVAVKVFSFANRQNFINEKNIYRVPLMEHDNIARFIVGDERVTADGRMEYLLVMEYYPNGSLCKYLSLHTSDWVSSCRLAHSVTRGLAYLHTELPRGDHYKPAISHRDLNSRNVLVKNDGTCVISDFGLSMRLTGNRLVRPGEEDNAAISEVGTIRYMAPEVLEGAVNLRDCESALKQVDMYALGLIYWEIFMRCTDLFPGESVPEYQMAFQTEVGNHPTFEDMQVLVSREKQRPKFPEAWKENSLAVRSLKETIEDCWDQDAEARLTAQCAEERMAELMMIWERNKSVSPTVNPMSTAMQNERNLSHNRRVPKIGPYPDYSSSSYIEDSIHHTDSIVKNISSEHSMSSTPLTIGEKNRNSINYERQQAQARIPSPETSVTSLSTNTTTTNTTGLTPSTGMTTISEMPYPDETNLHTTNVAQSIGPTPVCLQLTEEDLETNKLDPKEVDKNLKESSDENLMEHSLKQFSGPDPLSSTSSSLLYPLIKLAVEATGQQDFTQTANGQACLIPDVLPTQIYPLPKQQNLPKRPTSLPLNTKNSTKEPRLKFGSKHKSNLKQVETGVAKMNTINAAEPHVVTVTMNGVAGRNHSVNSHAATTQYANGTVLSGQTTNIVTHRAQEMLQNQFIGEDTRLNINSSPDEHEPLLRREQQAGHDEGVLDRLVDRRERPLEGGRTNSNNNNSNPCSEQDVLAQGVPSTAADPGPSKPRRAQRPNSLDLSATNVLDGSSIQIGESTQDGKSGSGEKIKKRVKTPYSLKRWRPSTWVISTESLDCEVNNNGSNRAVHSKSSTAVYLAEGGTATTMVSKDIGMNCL
Description: as §1, §2

PDGFRB = biological target: T13, PDGFRB (Homo sapiens, UniProt P09619); experiment: KINOMEscan; type: binding
T13 construct: purchased Eurofins DiscoverX, LLC; host or cells: E. coli BL21-derived host (T7 phage) or HEK-293
T13 sequence (P09619 33-1106): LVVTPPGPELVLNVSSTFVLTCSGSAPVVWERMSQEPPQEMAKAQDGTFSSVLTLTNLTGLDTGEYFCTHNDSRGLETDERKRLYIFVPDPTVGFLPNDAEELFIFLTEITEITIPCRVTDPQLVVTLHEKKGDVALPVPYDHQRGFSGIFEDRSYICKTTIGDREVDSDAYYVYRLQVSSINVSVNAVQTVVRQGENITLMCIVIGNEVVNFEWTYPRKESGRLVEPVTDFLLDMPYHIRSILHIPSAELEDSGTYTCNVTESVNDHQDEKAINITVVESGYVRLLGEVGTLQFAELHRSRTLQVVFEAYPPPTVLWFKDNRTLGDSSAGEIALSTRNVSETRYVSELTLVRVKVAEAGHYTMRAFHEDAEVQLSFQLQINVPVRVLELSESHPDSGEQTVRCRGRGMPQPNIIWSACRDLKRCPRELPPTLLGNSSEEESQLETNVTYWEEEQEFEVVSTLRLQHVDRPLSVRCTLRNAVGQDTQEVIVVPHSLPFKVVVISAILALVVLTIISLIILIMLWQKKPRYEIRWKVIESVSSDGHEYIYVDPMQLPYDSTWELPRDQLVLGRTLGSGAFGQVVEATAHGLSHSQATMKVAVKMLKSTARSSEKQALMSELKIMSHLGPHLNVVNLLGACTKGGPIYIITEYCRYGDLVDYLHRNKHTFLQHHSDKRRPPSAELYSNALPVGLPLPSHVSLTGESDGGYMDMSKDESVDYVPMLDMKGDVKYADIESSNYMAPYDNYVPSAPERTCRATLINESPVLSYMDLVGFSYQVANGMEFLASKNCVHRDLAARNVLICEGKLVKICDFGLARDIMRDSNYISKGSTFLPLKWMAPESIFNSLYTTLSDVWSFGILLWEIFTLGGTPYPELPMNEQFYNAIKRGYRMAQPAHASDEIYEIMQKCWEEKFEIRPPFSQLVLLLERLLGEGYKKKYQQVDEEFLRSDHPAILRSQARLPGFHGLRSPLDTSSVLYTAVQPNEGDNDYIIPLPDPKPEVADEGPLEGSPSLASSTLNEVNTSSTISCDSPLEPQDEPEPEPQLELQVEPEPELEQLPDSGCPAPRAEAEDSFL
Description: as §1, §2

MEK1 = biological target: T14, MEK1 (Homo sapiens, UniProt Q02750); experiment: KINOMEscan; type: binding
T14 construct: purchased Eurofins DiscoverX, LLC; host or cells: E. coli (BL21-derived, T7 phage) or HEK-293
Description: as §1, §2

PAK1 [3] = tested on: PAK1
[4] = for Pe ± SEM: BBB-PAMPA, pH 7.4, n = 2 novel compounds, n = 3 reference drugs; for CNS (+/–): predicted BBB permeation from Pe

Structure (SMILES)	RA @ 1000nM (CDK9)	RA @ 10000nM (CDK9)	RA @ 1000nM (FAK)	RA @ 10000nM (FAK)	RA @ 1000nM (KIT(D816V))	RA @ 10000nM (KIT(D816V))	RA @ 1000nM (MAPKAPK2)	RA @ 10000nM (MAPKAPK2)	RA @ 1000nM (MKNK1)	RA @ 10000nM (MKNK1)	RA @ 1000nM [1]	RA @ 10000nM [1]	RA @ 1000nM (IGF1R)	RA @ 10000nM (IGF1R)	RA @ 1000nM (p38α)	RA @ 10000nM (p38α)	RA @ 1000nM (SRPK3)	RA @ 10000nM (SRPK3)	RA @ 1000nM (PAK1 [2])	RA @ 10000nM (PAK1 [2])	other results
CC(C)Cn1ncc2cc(Cc3ccc(F)cc3F)c(C(=O)NCCN(C)C)cc21 [Compound 94, 5-(2,4-Difluorobenzyl)-N-(2-(dimethylamino)ethyl)-1-isobutyl-1H-indazole-6-carboxamide]	100%	100%	96%	89%	94%	100%	100%	84%	100%	100%	96%	55%	94%	84%	2.3%	0.4%	77%	100%	96%	94%	RA @ 1000nM (MET): 96%; RA @ 10000nM (MET): 100%; RA @ 1000nM (BMPR2): 86%; RA @ 10000nM (BMPR2): 95%; RA @ 1000nM (PDGFRB): 100%; RA @ 10000nM (PDGFRB): 97%; RA @ 1000nM (MEK1): 98%; RA @ 10000nM (MEK1): 74%; RA @ 1000nM (PAK1 [3]): 96%; RA @ 10000nM (PAK1 [3]): 94%; RA @ 1000nM (CSNK1D): 86%; RA @ 10000nM (CSNK1D): 79%; Pe ± SEM [4]: 10.4 ± 0.01 ×10–6 cm/s; CNS (+/–) [4]: CNS+ (CNS+ indicates high predicted BBB permeation [Pe (×10–6 cm/s) > 4.0]); IC50 (hBChE): 652 nM and 270 ng/mL
CN(C)CCNC(=O)c1cc2c(cnn2CC2CCCCC2)cc1Cc1ccc(F)cc1F [Compound 95, 1-(Cyclohexylmethyl)-5-(2,4-difluorobenzyl)-N-(2-(dimethylamino)ethyl)-1H-indazole-6-carboxamide]	100%	93%	92%	94%	96%	94%	100%	100%	100%	100%	96%	93%	100%	93%	6.7%	0.1%	92%	99%	100%	93%	RA @ 1000nM (MET): 100%; RA @ 10000nM (MET): 100%; RA @ 1000nM (BMPR2): 89%; RA @ 10000nM (BMPR2): 92%; RA @ 1000nM (PDGFRB): 100%; RA @ 10000nM (PDGFRB): 96%; RA @ 1000nM (MEK1): 98%; RA @ 10000nM (MEK1): 100%; RA @ 1000nM (PAK1 [3]): 100%; RA @ 10000nM (PAK1 [3]): 93%; RA @ 1000nM (CSNK1D): 93%; RA @ 10000nM (CSNK1D): 84%; Pe ± SEM [4]: 13.2 ± 1.1 ×10–6 cm/s; CNS (+/–) [4]: CNS+ (CNS+ indicates high predicted BBB permeation [Pe (×10–6 cm/s) > 4.0]); IC50 (hBChE): 772 nM and 350 ng/mL
